Laboratory results as given in US20220127247A1, “N-(PYRIDIN-2-YL)PYRIDINE-SULFONAMIDE DERIVATIVES AND THEIR USE IN THE TREATMENT OF DISEASE” (NOVARTIS AG, priority 2019, published 2022).
pEC50: −log10 of the molar value.

Key:
delF508-CFTR [1] = molecular target: T1, delF508-CFTR (Homo sapiens, UniProt P13569, DEL508-508); assay: delF508-CFTR functional activity in primary human bronchial epithelial cells (HBECs), Multi-Transepithelial Clamp Circuit (MTECC-24) assay; type: cell-based; conditions: for pEC50: primary human delF508-CFTR bronchial epithelial cells, 24 h with compound, equivalent short circuit current (Ieq), forskolin plus potentiator, mean of at least two replicates, read-out: MTECC24-CFHBEC EC50; for MTECC24-CFHBEC Amax %: test compound added 24 h before assay, with potentiator (S)-3-amino-6-methoxy-N-(3,3,3-trifluoro-2-hydroxy-2-methylpropyl)-5-(trifluoromethyl)picolinamide, relative to 2 μM 3-(6-(1-(2,2-difluorobenzo[d][1,3]dioxol-5-yl)cyclopropane-1-carboxamido)-3-methylpyridin-2-yl)benzoic acid + 0.5 μM N-(2,4-di-tert-butyl-5-hydroxyphenyl)-4-oxo-1,4-dihydroquinoline-3-carboxamide
T1 construct: expressed in transfected cells
T1 sequence (P13569 with tags, fused parts or gaps DEL508-508): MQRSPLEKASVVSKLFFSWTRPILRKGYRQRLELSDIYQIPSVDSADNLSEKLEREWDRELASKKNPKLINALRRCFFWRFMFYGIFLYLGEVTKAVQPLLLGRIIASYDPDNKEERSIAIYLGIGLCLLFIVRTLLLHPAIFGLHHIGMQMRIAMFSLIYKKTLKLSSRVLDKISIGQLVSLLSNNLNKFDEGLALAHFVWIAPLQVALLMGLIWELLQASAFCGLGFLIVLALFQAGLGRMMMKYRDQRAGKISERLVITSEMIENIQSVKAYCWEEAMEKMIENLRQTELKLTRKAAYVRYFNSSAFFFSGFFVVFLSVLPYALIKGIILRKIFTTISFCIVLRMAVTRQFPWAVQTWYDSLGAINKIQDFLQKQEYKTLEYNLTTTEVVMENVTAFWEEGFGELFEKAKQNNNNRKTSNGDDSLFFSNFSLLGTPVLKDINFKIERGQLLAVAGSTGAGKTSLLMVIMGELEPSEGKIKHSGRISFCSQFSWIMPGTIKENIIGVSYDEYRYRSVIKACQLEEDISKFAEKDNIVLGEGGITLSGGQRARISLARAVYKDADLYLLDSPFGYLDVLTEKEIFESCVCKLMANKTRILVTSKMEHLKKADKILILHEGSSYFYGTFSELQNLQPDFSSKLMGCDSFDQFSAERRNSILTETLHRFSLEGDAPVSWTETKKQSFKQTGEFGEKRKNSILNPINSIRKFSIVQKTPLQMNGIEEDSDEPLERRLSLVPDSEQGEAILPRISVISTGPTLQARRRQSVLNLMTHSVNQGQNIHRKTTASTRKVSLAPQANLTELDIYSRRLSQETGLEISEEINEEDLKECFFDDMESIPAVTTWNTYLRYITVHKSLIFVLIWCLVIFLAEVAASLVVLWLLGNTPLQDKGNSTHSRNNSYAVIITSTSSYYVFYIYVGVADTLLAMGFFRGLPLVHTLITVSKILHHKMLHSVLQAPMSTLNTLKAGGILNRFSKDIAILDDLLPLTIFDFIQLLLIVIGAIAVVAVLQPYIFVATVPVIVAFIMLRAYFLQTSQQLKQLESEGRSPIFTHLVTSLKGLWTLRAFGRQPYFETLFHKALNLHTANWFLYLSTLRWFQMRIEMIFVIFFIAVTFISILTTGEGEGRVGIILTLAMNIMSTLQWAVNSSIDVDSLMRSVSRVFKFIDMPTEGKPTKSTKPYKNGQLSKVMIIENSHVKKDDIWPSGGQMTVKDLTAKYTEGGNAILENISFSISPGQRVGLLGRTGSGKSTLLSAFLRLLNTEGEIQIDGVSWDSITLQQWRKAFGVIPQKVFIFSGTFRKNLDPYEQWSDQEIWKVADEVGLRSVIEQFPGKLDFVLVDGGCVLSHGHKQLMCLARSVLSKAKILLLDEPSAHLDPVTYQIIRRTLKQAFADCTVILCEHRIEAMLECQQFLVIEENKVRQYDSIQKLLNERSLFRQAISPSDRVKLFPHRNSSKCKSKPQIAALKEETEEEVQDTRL
Description: Measurement of delF508-CFTR Functional Activity in Primary Human Bronchial Epithelial Cells (HBECs) Using Multi-Transepithelial Clamp Circuit (MTECC-24) Assay
This assay measures the functional activity of the CFTR channel (Chloride ion transport) in patient derived primary human bronchial epithelial cells with forskolin activation and in the presence of the CFTR corrector/potentiator combination.
Primary human delF508-CFTR bronchial epithelial cells were and cultured according to previously established methods (Neuberger, T. et, al., Methods in Molecular Biology, 2011, 741, pp 39-54). Briefly, before thawing the HBEC cells, T25 flasks were coated with 2 mL of 3T3 conditioned media (MTI-GlobalStem, Cat #GSM9100) for at least 12 hours in 37° C. CO2 incubator. 1.7×10^5 cells were seeded into one T25 flask with 5 mL of HBE growth media (BEBM with supplements (Lonza, Cat #CC-3170) with 10 nM of retinoic acid (Sigma, Cat #R-2625) and 1% of PSA (Hyclone, Cat #SV30079.01). Media was changed every day till the cells were 100% confluent. Cells were seeded into T75 flasks (pre-coated with 5 mL of 3T3 conditioned media for more than 12 hrs) at 4.95×10^5 cells/T75 flask in 15 mL of HBE growth media. Flasks were fed everyday with fresh HBE growth media until the cells were confluent. 24-well transwell plates (Corning, Cat #3378) were coated with 3T3 conditioned media (70 μL on top of the filter, 350 μL to the bottom of the well) overnight in the 37° C. CO2 incubator. Cells were seeded in the pre-coated 24-well transwell plates at 1.7×10^5 cell/well with 700 μL of growth media at the bottom of the well and 200 μL of growth media at the top of the filter. After 24 hrs, cells were switched into HBE differentiation media ((DMEM/F12 (Gibco, Cat #11330-032) supplement with 2% Ultroser G (Pall, Cat #15950-017), 2% of Fetal Clone II (Hyclone, Cat #SH30066.03), 0.25% Bovine Brain Extract (Lonza, Cat #CC-4098), 1% of PSA, 2.5 μg/mL of Insulin (Sigma, Cat #19278), 20 nM of Hydrocortisone (Sigma, Cat #H0888), 500 nM of Triiodothyronine (Sigma, Cat #T6397), 2.5 μg/mL of Transferrin (Sigma, Cat #T8158), 250 nM of Ethanolamine (Sigma, Cat #E0135), 1.5 μM of Epinephrine (Sigma, Cat #E4250), 250 nM of Phosphoethanolamine (Sigma, Cat #P0503), 10 nM of retinoic acid)) with 200 μL on top of the filter (apical side) and 700 μL at the bottom of the well (basolateral side). Cells were fed every other day with the differentiation media. After 4 days, cells were exposed to air/liquid interface. Then cells were fed every other day for 4 weeks before fully differentiated.
Cells were washed with 3 mM DTT in PBS at 70 ul/well for 30 min at 37° C. 6 days before the assay. 3 days before the assay, cells were washed again with PBS at 70 ul/well for 30 min at 37° C. Then cells were treated with compound for 24 hrs before the assay.
Following 24 hr treatment with compound, cells were transferred into plates containing 750 ul of assay media on basolateral side and 250 ul on apical side (Assay medium: F-12 Coon's modified, 20 mM HEPES pH7.4 with TRIS Base, No FCS or bicarbonate). The plates wee then transferred to the heated plate compartments (basolateral buffer temperature ˜36.5° C. on the heating block) of the TECC24 system for 45 mins prior to measurements.
Modulators were added sequentially as follows while the TECC24 instrument recorded the equivalent short circuit current (Ieq):
Prior to dilution into assay medium the stocks were as follows: • Benzamil stock: 10 mM in DMSO • Forskolin Stock: 50 mM in DMSO • N-(2,4-di-tert-butyl-5-hydroxyphenyl)-1,4-dihydro-4-oxoquinoline-3-carboxamide: 50 mM in DMSO • (S)-3-amino-6-methoxy-N-(3,3,3-trifluoro-2-hydroxy-2-methylpropyl)-5-(trifluoromethyl)picolinamide: 50 mM stock 100% DMSO • Bumetanide stock: 20 mM in EtOH
The data was normalized using the median signal from wells treated with 0.1% DMSO as a baseline. Curve fitting and EC50 calculations were performed using the following equation: […]

delF508-CFTR [2] = molecular target: T1, delF508-CFTR; assay: Measurement of delF508-CFTR-HRP surface expression in CFBE41o- cells; type: cell-based; conditions: for pEC50: HRP-tagged delF508-CFTR in CFBE41o- cells, 24 h with compound, luminescence, 10-point curve, top 10 μM; for Emax: efficacy relative to reference compound 3-(6-(1-(2,2-difluorobenzo[d][1,3]dioxol-5-yl)cyclopropane-1-carboxamido)-3-methylpyridin-2-yl)benzoic acid, CFBE41o- cells, 24 h, read-out: DelF508-CFTR-HRP Amax %
How it was run: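 CFBE41o- cells stably expressing delF508-CFTR with HRP in the fourth extracellular loop, induced with 500 ng/mL doxycycline for 48 h, then treated with compound (top 10 μM, 10-point 3-fold) for 24 h at 37° C. Surface HRP detected by luminescence with cell-impermeant substrate; EC50 from logistic fit of triplicates, normalized to lowest concentration.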

SMILES | pEC50 (delF508-CFTR [1]) | MTECC24-CFHBEC Amax % (delF508-CFTR [1]) | pEC50 (delF508-CFTR [2]) | Emax (delF508-CFTR [2])
Cc1ccccc1-c1nc(NS(=O)(=O)c2cccc(N(CCCC(=O)O)C(C)C)n2)ccc1C(F)(F)F [Compound 94, 4-(isopropyl(6-(N-(6-(o-tolyl)-5-(trifluoromethyl)pyridin-2-yl)sulfamoyl)pyridin-2-yl)amino)butanoic acid] | 7.59 | 208% | 5.86 | 
CCc1ccccc1-c1nc(NS(=O)(=O)c2cccc(N(CCCC(=O)O)C(C)C)n2)ccc1C(F)(F)F [Compound 96, 4-((6-(N-(6-(2-ethylphenyl)-5-(trifluoromethyl)pyridin-2-yl)sulfamoyl)pyridin-2-yl)(isopropyl)amino)butanoic Acid] | 8.70 | 202% | 6.14 | 
CCc1ccccc1-c1nc(NS(=O)(=O)c2cccc(N(CC)CCCC(=O)O)n2)ccc1C(F)(F)F [Compound 97, 4-(ethyl(6-(N-(6-(2-ethylphenyl)-5-(trifluoromethyl)pyridin-2-yl)sulfamoyl)pyridin-2-yl)amino)butanoic Acid] | 8.40 | 190% | 5.87 | 
Cc1ccccc1-c1nc(NS(=O)(=O)c2cccc(N(CCCC(=O)O)CC3CC3)n2)ccc1C(F)(F)F [Compound 103, 4-((cyclopropylmethyl)(6-(N-(6-(o-tolyl)-5-(trifluoromethyl)pyridin-2-yl)sulfamoyl)pyridin-2-yl)amino)butanoic Acid] | 7.14 | 142% | 5.84 | 
CCN(CCCC(=O)O)c1cccc(S(=O)(=O)Nc2ccc(C(F)(F)F)c(-c3ccccc3C)n2)n1 [Compound 114, 4-(ethyl(6-(N-(6-(o-tolyl)-5-(trifluoromethyl)pyridin-2-yl)sulfamoyl)pyridin-2-yl)amino)butanoic Acid] | 7.00 | 211% | 5.77 | 
Cc1ccccc1-c1nc(NS(=O)(=O)c2cccc(N(CCC(=O)O)C3CC3)n2)ccc1C(F)(F)F [Compound 118, 3-(cyclopropyl(6-(N-(6-(o-tolyl)-5-(trifluoromethyl)pyridin-2-yl)sulfamoyl)pyridin-2-yl)amino)propanoic Acid] | 6.57 | 151% | 5.73 | 563%
Cc1ccccc1-c1nc(NS(=O)(=O)c2cccc(N(CCCC(=O)O)C3CC3)n2)ccc1C(F)(F)F [Compound 125, 4-(cyclopropyl(6-(N-(6-(o-tolyl)-5-(trifluoromethyl)pyridin-2-yl)sulfamoyl)pyridin-2-yl)amino)butanoic Acid] | 6.37 | 114% | 5.87 | 643%

Second part, the molecule after the results:

pEC50 (delF508-CFTR [1]) | MTECC24-CFHBEC Amax % (delF508-CFTR [1]) | pEC50 (delF508-CFTR [2]) | Emax (delF508-CFTR [2]) | SMILES
8.30 | 135% | 5.87 |  | CC(C)c1ccccc1-c1nc(NS(=O)(=O)c2cccc(N(C)CCCC(=O)O)n2)ccc1C(F)(F)F [Compound 90, 4-((6-(N-(6-(2-isopropylphenyl)-5-(trifluoromethyl)pyridin-2-yl)sulfamoyl)pyridin-2-yl)(methyl)amino)butanoic Acid]
6.40 | 123% | 5.74 |  | Cc1ccc(F)cc1-c1nc(NS(=O)(=O)c2cccc(N(C)CCCC(=O)O)n2)ccc1C(F)(F)F [Compound 92, 4-((6-(N-(6-(5-fluoro-2-methylphenyl)-5-(trifluoromethyl)pyridin-2-yl)sulfamoyl)pyridin-2-yl)(methyl)amino)butanoic Acid]
7.40 | 235% | 5.84 |  | CCc1ccc(F)cc1-c1nc(NS(=O)(=O)c2cccc(N(C)CCCC(=O)O)n2)ccc1C(F)(F)F [Compound 93, 4-((6-(N-(6-(2-ethyl-5-fluorophenyl)-5-(trifluoromethyl)pyridin-2-yl)sulfamoyl)pyridin-2-yl)(methyl)amino)butanoic Acid]
7.62 | 148% | 5.77 |  | Cc1ccc(F)cc1-c1nc(NS(=O)(=O)c2cccc(N(CCCC(=O)O)C(C)C)n2)ccc1C(F)(F)F [Compound 95, 4-((6-(N-(6-(5-fluoro-2-methylphenyl)-5-(trifluoromethyl)pyridin-2-yl)sulfamoyl)pyridin-2-yl)(isopropyl)amino)butanoic Acid]
6.88 | 298% | 5.90 |  | CCCCN(CCCC(=O)O)c1cccc(S(=O)(=O)Nc2ccc(C(F)(F)F)c(-c3cc(F)ccc3C)n2)n1 [Compound 102, 4-(butyl(6-(N-(6-(5-fluoro-2-methylphenyl)-5-(trifluoromethyl)pyridin-2-yl)sulfamoyl)pyridin-2-yl)amino)butanoic Acid]
8.22 | 182% | 5.99 |  | CCc1ccc(F)cc1-c1nc(NS(=O)(=O)c2cccc(N(CC)CCCC(=O)O)n2)ccc1C(F)(F)F [Compound 110, 4-(ethyl(6-(N-(6-(2-ethyl-5-fluorophenyl)-5-(trifluoromethyl)pyridin-2-yl)sulfamoyl)pyridin-2-yl)amino)butanoic Acid]
7.15 | 146% | 5.82 |  | CCN(CCCC(=O)O)c1cccc(S(=O)(=O)Nc2ccc(C(F)(F)F)c(-c3cc(F)ccc3C)n2)n1 [Compound 115, 4-(ethyl(6-(N-(6-(5-fluoro-2-methylphenyl)-5-(trifluoromethyl)pyridin-2-yl)sulfamoyl)pyridin-2-yl)amino)butanoic Acid]
7.85 | 207% | 6.01 |  | Cc1ccc(F)cc1-c1nc(NS(=O)(=O)c2cccc(N(CCC(=O)O)CC(C)C)n2)ccc1C(F)(F)F [Compound 126, 3-((6-(N-(6-(5-fluoro-2-methylphenyl)-5-(trifluoromethyl)pyridin-2-yl)sulfamoyl)pyridin-2-yl)(isobutyl)amino)propanoic Acid]
7.68 | 247% | 6.14 |  | Cc1ccc(F)cc1-c1nc(NS(=O)(=O)c2cccc(N(CCCC(=O)O)CC(C)C)n2)ccc1C(F)(F)F [Compound 127, 4-((6-(N-(6-(5-fluoro-2-methylphenyl)-5-(trifluoromethyl)pyridin-2-yl)sulfamoyl)pyridin-2-yl)(isobutyl)amino)butanoic Acid]
